From PubChem BioAssay (NCI)
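Results reflect a 48-hour exposure of cells in 96-well plates to compound at five concentrations. Here, GI50 denotes the concentration required for 50% inhibition of growth. The concentration for full growth arrest is given as TGI.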

Legend:
Assay in all cases: DTP human tumour cell line panel, 48 h
CCRF-CEM leukemia = tested on: CCRF-CEM leukemia
HCC-2998 colon = tested on: HCC-2998 colon
K-562 leukemia = tested on: K-562 leukemia
M14 melanoma = tested on: M14 melanoma
NCI-H226 lung = tested on: NCI-H226 lung
NCI-H522 lung = tested on: NCI-H522 lung
OVCAR-4 ovarian = tested on: OVCAR-4 ovarian
SK-OV-3 ovarian = tested on: SK-OV-3 ovarian
TK-10 renal = tested on: TK-10 renal
U251 CNS = tested on: U251 CNS

SMILES | GI50 (CCRF-CEM leukemia) [µM] | TGI (CCRF-CEM leukemia) [µM] | GI50 (HCC-2998 colon) [µM] | TGI (HCC-2998 colon) [µM] | GI50 (K-562 leukemia) [µM] | TGI (K-562 leukemia) [µM] | GI50 (M14 melanoma) [µM] | TGI (M14 melanoma) [µM] | GI50 (NCI-H226 lung) [µM] | TGI (NCI-H226 lung) [µM] | GI50 (NCI-H522 lung) [µM] | TGI (NCI-H522 lung) [µM] | GI50 (OVCAR-4 ovarian) [µM] | TGI (OVCAR-4 ovarian) [µM] | GI50 (SK-OV-3 ovarian) [µM] | TGI (SK-OV-3 ovarian) [µM] | GI50 (TK-10 renal) [µM] | TGI (TK-10 renal) [µM] | GI50 (U251 CNS) [µM] | TGI (U251 CNS) [µM]
CC[CH2][Sn]([Cl])([Cl])[CH2]CC | 1.24 | > 100 | 10.1 | 22 | 3.33 | > 100 | 11.1 | 24.1 | 4.02 | 16.5 | 0.354 | 1.62 | 12.9 | 25.6 | 25.7 | 70.8 | 3.16 | 11.1 | 3.9 | 16.5
COc1ccc(C2=C(c3cc(OC)c(OC)c(OC)c3)C(=O)CC2)cc1 | 0.21 | – | 0.244 | 18.2 | 0.0449 | > 100 | 0.107 | 4.01 | 0.425 | > 22.6 | 0.0671 | 2.84 | 0.689 | > 100 | 0.179 | – | 12.3 | > 100 | 0.324 | > 100
COc1ccc(/C=C/c2cc(N3CCOCC3)c3cc(F)c(F)cc3n2)cc1OC | 0.31 | 10.2 | 0.876 | 4.21 | – | – | 0.762 | 3.92 | 1.1 | 4.82 | 0.454 | 2.72 | 0.253 | 2.04 | 1.32 | 9.17 | 1.14 | 10.2 | 0.728 | 10.5
CC(=O)OC1CCC2(C)C(=CCC3C2CCC2(C)C(C(C)C(=O)O)CCC32)C1 (configuration not stated) | – | > 100 | – | > 100 | – | > 100 | – | > 100 | – | > 100 | – | > 100 | – | > 100 | – | > 100 | – | > 100 | – | > 100
CC(=O)OC[C@]12CC[C@@H]([C@@H](C)C(N)=O)[C@@H]1[C@H]1CC[C@@H]3[C@@]4(C)CC[C@H](OC(C)=O)C(C)(C)[C@@H]4CC[C@@]3(C)[C@]1(C)CC2 | 5.19 | 30 | 10.4 | 26.1 | 4.09 | 35.7 | 7.38 | 31.6 | 7.28 | 23.9 | 4.94 | 20.7 | 4.72 | 18.5 | 13.4 | 64 | 14.7 | 39.8 | 5.1 | 20.4
Cc1cc(C)cc(Sc2c([N+](=O)[O-])ncn2C)c1 | – | > 100 | – | 92.7 | – | > 100 | – | 27.6 | – | 22 | – | 20 | – | 44.1 | – | 75.5 | – | 72.4 | – | 36.7
O=C(CCCc1ccccn1)c1ccccc1 | – | > 100 | – | > 100 | – | > 100 | – | > 100 | – | > 100 | – | > 100 | – | > 100 | – | > 100 | – | > 100 | – | > 100
CCCCN(CCCC)CCCN=c1nc2c(c(N)n1-c1ccccc1)c(=S)n(-c1ccccc1)c(=S)n2-c1ccccc1 | 0.215 | – | 0.825 | 2.52 | 0.54 | > 100 | 0.206 | 0.424 | 1.61 | 3.11 | 0.664 | 2.23 | 0.994 | 2.46 | 1.55 | 3.04 | 1.28 | 2.69 | 0.34 | 1.27
C#CCNC(=O)CC[C@]1(C)[C@H]2CC[C@@H]3[C@@H]([C@@](C)(O)CCC=C(C)C)CC[C@@]3(C)[C@]2(C)CC[C@H]1C(=C)C | 6.77 | 28.7 | 45.8 | > 100 | 17.8 | 49.6 | 30.9 | > 100 | 18.3 | 43.1 | 15.2 | 35.1 | 43.6 | > 100 | > 100 | > 100 | 43.7 | > 100 | 20.1 | 49.5
CN(C)CCN=Cc1c2ccccc2c(=O)n2c1oc1ccccc12 | 4.36 | 62.8 | 12.2 | 24.6 | 11 | > 100 | 15.2 | 31.2 | 10 | 36.7 | 16.5 | 38 | 18.4 | 51.6 | 8.44 | 24.3 | 3.44 | 14 | 7.4 | 21
O=c1c2ccccc2c(=O)c2c1cc(Cl)c1[nH]c3c([nH]c12)c(Cl)cc1c(=O)c2ccccc2c(=O)c13 | – | > 100 | – | > 100 | – | > 100 | – | > 100 | – | > 100 | – | > 100 | – | > 100 | – | > 100 | – | > 100 | – | > 100
OC(COc1cccc2ccccc12)CN1CCN(c2ccccc2)CC1 (configuration not stated) | 17.9 | 53.2 | 16.5 | 30.7 | 13.7 | 34 | 15.5 | 29.7 | 14.7 | 29.7 | 14.4 | 29.2 | 14.1 | 27.6 | 17 | 32.4 | 13.6 | 26.9 | 17.3 | 32.1
N#Cc1cccc(NC(=O)c2oc3ccccc3c2-c2cnn(-c3ccccc3)c2)c1 | > 500 | > 500 | > 500 | > 500 | > 500 | > 500 | > 500 | > 500 | > 500 | > 500 | > 500 | > 500 | 193 | > 500 | > 500 | > 500 | 317 | > 500 | 256 | > 500
N#CCC(=O)N/N=C1\C(=O)N(c2ccc(Cl)cc2)C(=O)C(=O)C1c1nc2ccccc2o1 (configuration not stated) | – | > 100 | – | > 100 | – | – | – | > 100 | – | > 100 | – | > 100 | – | > 100 | – | > 100 | – | > 100 | – | > 100
CCOC(=O)C(=O)N=Nc1nc2c(O)c3ccccc3c(O)c2s1 | – | > 100 | – | 28.6 | – | 12.7 | – | 4.7 | – | 30.2 | – | 8.79 | – | 3.64 | – | 34.4 | – | 39.6 | – | 14.1
O=C(Nc1ccccc1Br)c1cccc([N+](=O)[O-])c1O | – | > 40.3 | – | 16.6 | – | > 100 | – | 28.9 | – | 14.8 | – | 6.4 | – | > 28.9 | – | > 57.8 | – | 12.6 | – | 14.9
COc1ccc(/C=C\c2cc(OC)c(OC)c(OC)c2)cc1OC(=O)c1cccc(Cn2cc(CCOC(=O)c3cccc(Cn4nnc5c4C(=O)c4ccccc4C5=O)c3)nn2)c1 | < 0.01 | > 100 | 0.0362 | > 47.8 | < 0.01 | > 100 | < 0.01 | 10.9 | 0.15 | > 37.1 | 0.0102 | – | 0.0403 | > 100 | 2.73 | 46.7 | 9.58 | 33.5 | < 0.01 | > 100
COc1ccc(-c2nn(-c3cccc(NC(=O)Nc4cc(C(F)(F)F)cc(C(F)(F)F)c4)c3)cc2-c2ccncc2)cc1Cl | 0.962 | 3.11 | 2.02 | 9.18 | 1.05 | 10 | 0.913 | 2.51 | 1.33 | 6.35 | 0.837 | 2.64 | 1.1 | 4.86 | 1.52 | 7.38 | 1.67 | 10.9 | 0.731 | 1.73
C#COc1cccc(Nc2ncnc3ncc(NC(=O)CCl)cc23)c1 | – | > 62.5 | > 62.5 | > 62.5 | – | > 62.5 | 50.5 | > 62.5 | > 62.5 | > 62.5 | > 17.9 | > 29.9 | > 62.5 | > 62.5 | > 62.5 | > 62.5 | 62 | > 62.5 | > 13.3 | > 34.5
C=C1Oc2nc3ccccc3c(=O)n2C1(C)C | – | > 100 | – | > 100 | – | > 100 | – | > 100 | – | > 100 | – | > 100 | – | > 100 | – | > 100 | – | > 100 | – | > 100
COC(=O)Nc1nc2cc3c(cc2s1)OCCO3 | > 50 | > 50 | > 50 | > 50 | > 50 | > 50 | > 50 | > 50 | > 50 | > 50 | > 50 | > 50 | > 50 | > 50 | > 50 | > 50 | > 50 | > 50 | > 50 | > 50
Nc1ccccc1NC(=O)c1ccc(CN2CCC/C(=C\c3cccc(Cl)c3)C2=O)cc1 | 0.866 | > 100 | 1.18 | 5.7 | 0.0399 | > 100 | 0.0521 | 13.7 | 2.01 | 7.06 | 0.225 | 1.06 | 1.49 | > 100 | 0.626 | 26.4 | 1.11 | 5.88 | 0.138 | 13.2
C/C(=C\CCc1ccoc1)CC/C=C(\C)CCCN1CCC(CO)CC1 | 2.42 | 6.47 | 2.1 | 4.03 | 1.52 | 3.86 | 1.94 | 3.92 | 6.16 | 22.3 | 2.17 | 5.83 | 3.28 | 14.8 | 6.94 | 20 | 2.41 | 6.54 | 2.41 | 9.24
CC[O-].Cc1ccc2cccc([O-])c2n1.Cc1ccc2cccc([O-])c2n1.Cc1ccc2cccc([O-])c2n1.[Ti+4] | 6.97 | 38.8 | 27.5 | > 67.8 | 11.7 | 52.2 | 22.2 | > 53.5 | > 59.6 | > 100 | 14 | 30.4 | 25 | > 68.3 | > 68.9 | > 100 | 44.2 | > 83.9 | 18.3 | 50.4
COc1cc2c3c(n(C)c(=O)c2cc1OC)-c1cc2c(cc1/C3=C\CCCBr)OCO2 | 14.3 | 50.3 | – | > 51.3 | 58.3 | > 100 | > 96.6 | > 100 | 77.5 | > 100 | – | > 30.2 | 39.2 | > 100 | 18.1 | 44.8 | 15.2 | > 53.4 | 13.2 | > 60.3
COc1c(CNC(=O)CCl)cc2[nH]c(C)cc2c1CNC(=O)CCl | 2.71 | > 100 | 13.2 | 30.4 | 8.42 | > 100 | – | – | 9.2 | 73.7 | 1.82 | 4.16 | 4.55 | 22.3 | 12.4 | 86.4 | 9.17 | 56.7 | 1.94 | 4.7
COc1ccc(Cc2cnc(NC(=O)c3sc4ccccc4c3Cl)s2)cc1 | 0.402 | > 100 | 0.547 | > 100 | 0.289 | > 100 | – | – | 1.43 | > 100 | 0.279 | – | 2.82 | > 100 | 0.619 | > 100 | 4.31 | > 100 | 0.382 | > 100
COc1cc(C2CC(c3cc(C)ccc3C)=NN2c2ccc(S(=O)(=O)NC(=O)NCc3ccccc3)cc2)cc(OC)c1OC (configuration not stated) | 3.15 | 18.6 | 2.63 | 6.47 | 4 | 34.1 | – | – | 3.63 | 15.6 | 3.55 | 21.6 | 3.28 | 39.6 | 4.98 | 18.4 | 4.74 | 31 | 3.31 | 17.3
